Experimental findings from US5221682A, “Heteroarylamino- and heteroaryloxypyridinamines and related compounds” (Hoechst-Roussel Pharmaceuticals Incorporated, priority 1991, dated 1993) are described below.

In test [1] the test system is mouse ear edema induced by topical application of arachidonic acid. As to the kind of experiment: Arachidonic Acid-Induced Ear Edema (AAEE). The conditions noted are these: for AAEE: 1 mg (1.0 mg/ear). Format: in vivo, Female Swiss Webster mice. The method, then:
Arachidonic Acid-Induced Ear Edema (AAEE)
Female Swiss Webster mice topically received vehicle or test compound (1.0 mg/ear) on both ears (10 μl on outer and inner ears). After 30 minutes, the right ear of all groups received arachidonic acid (4 mg/ear) and the left ear received vehicle alone. […] See Young, J. M. et al., Invest. Dermatol., 80, (1983), pp 48-52.

For test [2], the system named is ear edema induced by topical application of TPA (phorbol 12-myristate acetate). As to the kind of experiment: TPA-Induced Ear Edema (TPAEE). As to conditions: for change in vivo at 10 µg/ear: Mus musculus, 5 h, read-out: TPAEE.
Experimental: Female Swiss Webster mice topically received TPA (10 μg/ear) on the right ear and vehicle on the left ear. The test compound (10 μg/ear) was applied to both ears. After five hours, the animals were sacrificed and an ear punch (4 mm) was taken from each ear. The difference in right and left ear punch weights for each animal was determined to assess activity.
The target of test [3] is T1, porcine pancreatic PLA2 (Sus scrofa, UniProt P00592).
T1 construct: from tissue; host or cells: porcine pancreas
The test is described as follows: In Vitro Phospholipase A2 Assay (PLA2). It is filed as biochemical. As to conditions: 0.01M; read-out: PLA2 (difference vs. control). The protocol:
In Vitro Phospholipase A2 Assay (PLA2)
The ability of a compound to modulate PLA2 activity (cleavage of ^14 C-dipalmitoyl phosphotidylcholine at the 2-position to ^14 C-palmitic acid) was quantitated in this assay. The reaction mixture contained Tris buffer (25 mM), pH 8.0, calcium chloride (2.0 mM), bovine serum albumin (0.5 mg), dipalmitoyl phosphotidylcholine (8×10^-5M), (^14 C-palmitoyl)dipalmitoyl phosphotidylcholine (6×10^3cpm), porcine pancreatic PLA2 (3.2 units) and the test compound. The reaction was run at 37° C. in a shaking incubator. The reaction was quenched and an internal standard was added in order to determine sample recovery. The samples were loaded onto C18 columns, eluted with ethanol, and the radioactivity was then measured. […] See Feyen, J. H. M., et al., Journal of Chromatography 259 (1983), pp. 338-340.

Test [4] concerns naja naja (snake venom) phospholipase A2 -induced paw edema. As to the kind of experiment: Phospholipase A2-induced Paw Edema (PIPE). Format: in vivo, male Wistar rats. As to conditions: for PIPE, difference in edema vs. control: 0.1M, rat, subplantar injection, two hours. The protocol:
Phospholipase A2 -induced Paw Edema (PIPE)
The ability of compounds to prevent naja naja (snake venom) phospholipase A2 -induced paw edema in male Wistar rats (100-125 g) was measured. PLA2 (3 units/paw) alone or with 0.1M of the test compound was injected in the subplantar region of the rat left hindpaw. Immediately subsequent to the injection and at two hours post administration the paw was immersed in a mercury bath, and paw displacement was measured on a recorder via a transducer. […] See Giessler, A. J. et al., Agents and Actions, Vol. 10, Trends in Inflammation Research (1981), p. 195.

Test [5] has as its system epidermal DNA synthesis. The test is described as follows: Epidermal DNA Synthesis (in vivo DNA). Further details: species or system HRS/J hairless mice. The conditions noted are these: topical, hairless mice; for in vivo DNA: 2.5 mg. The protocol: Epidermal DNA Synthesis (in vivo DNA)
The influence of compounds on the proliferation of skin was assessed by determining inhibition or stimulation of DNA synthesis. HRS/J hairless mice received topical application of a compound or vehicle alone on the dorsal aspect. After 24 hours, ^3 H-thymidine (25 μCi) was administered by intraperitonal injection. After an additional hour, animals were sacrificed and the dorsal skin was removed. The epidermal layer was peeled from the dermis by heat separation. Unincorporated ^3 H-thymidine was removed by washing successively with trichloroacetic acid and ethanol. Samples were centrifuged at 2,000 rpm and supernatants discarded. The epidermal sheets were then extracted with warm trichloroacetic acid and the supernatants analyzed for ^3 H-thymidine incorporation by scintillation counting and total DNA by a standard colorimetric assay. […] See Lowe, N. J., et al., Arch. Dermatol., 117 (1981), pp. 394-8; and Burton, K., Biochem. J. 62 (1956), pp. 315-22.

Test [6] deals with cultured human epidermal keratinocytes. As to the kind of experiment: Culture Human Keratinocyte DNA Synthesis (in vitro DNA). It is filed as cell-based. The protocol: Culture Human Keratinocyte DNA Synthesis (in vitro DNA)
The effect of a compound on the proliferation of cultured human epidermal keratinocytes was measured. After incubation with a test compound for 24 hours, the cultures were pulse-labelled for three hours with 5 μCi of ^3 H-thymidine. The cultures were extracted for DNA successively with trichloroacetic acid and ethanol, and thereafter dissolved with NaOH. The radioactive incorporation of ^3 H-thymidine into DNA was determined.

Each structure is given as a SMILES string.

T1 sequence (P00592 23-146): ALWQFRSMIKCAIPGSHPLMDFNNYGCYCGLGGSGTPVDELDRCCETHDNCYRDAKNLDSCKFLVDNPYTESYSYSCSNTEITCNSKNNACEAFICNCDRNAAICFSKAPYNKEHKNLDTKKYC

Consider `Nc1ccncc1Oc1ccc2[nH]ccc2c1` [3-[(1H-Indol-5-yl)-oxy]-4-pyridinamine, 3-[(1H-Indol-5-yl)oxy]-4-pyridinamine], for which the AAEE in test [1] is on record as -50%. Besides, the change in vivo at 10 µg/ear in test [2] was -42%. The inhibition at 10000 µM in test [3] amounted to 34%. In addition, the “PIPE, difference in edema vs. control” value in test [4] was -62%. For the same molecule, the “in vivo DNA” value in test [5] is listed as -37%.
Turning to `O=[N+]([O-])c1cc[n+]([O-])cc1NC1CCc2ccccc21` (stereo not drawn) [N-(Indan-1-yl)-4-nitro-3-pyridinamine-1-oxide], the change in vivo at 10 µg/ear in test [2] was -65%.
With `Nc1cnccc1Oc1ccc2[nH]ccc2c1` [4-[(1H-Indol-5-yl)-oxy]-3-pyridinamine, 4-[(1H-Indol-5-yl)oxy]-3-pyridinamine], in test [4], the “PIPE, difference in edema vs. control” value is -52%.
For the molecule `C[C@]12CCC(=O)C=C1CC[C@@H]1[C@@H]2[C@@H](O)C[C@@]2(C)[C@H]1CC[C@]2(O)C(=O)CO` [hydrocortisone, reference compound], the “ED50 (Standard)” value amounted to 47 μg/ear in test [2] (TPAEE standard, mouse) and 0.46 M in test [4] (PIPE standard, rat paw).
For `Nc1ccncc1Nc1ccc2[nH]ccc2c1` [N-(4-Amino-3-pyridinyl)-1H-indol-5-amine], in test [1], the AAEE is -41%. For the same molecule, in test [2], the change in vivo at 10 µg/ear was -85%. This molecule also yielded an inhibition at 50 µM in test [6] (50 μM, 24 hours) of 81%. Further, the inhibition at 10000 µM in test [3] turned out to be 87%. Also, the “PIPE, difference in edema vs. control” value in test [4] was -67%. The “in vivo DNA” value in test [5] is -27%.
`O=[N+]([O-])c1cc[n+]([O-])cc1Nc1ccc2[nH]ccc2c1` [N-(4-Nitro-3-pyridinyl)-1H-indol-5-amine, N^5-oxide]: in test [3], the inhibition at 10000 µM was 71%.
For `Cn1ccc2cc(Nc3c[n+]([O-])ccc3[N+](=O)[O-])ccc21` [1-Methyl-N-(4-nitro-3-pyridinyl)-1H-indol-5-amine, N^5-oxide], the change in vivo at 10 µg/ear in test [2] was -30%. The inhibition at 10000 µM in test [3] was 66%. Moreover, the “PIPE, difference in edema vs. control” value in test [4] is listed as -41%.
In general, IC50 refers to the concentration that inhibits the measured activity by half. In the case of `COc1ccc2c(c1)c(CC(=O)O)c(C)n2C(=O)c1ccc(Cl)cc1` [indomethacin, reference compound], the “ED50 (Standard)” value in test [1] (AAEE standard) came to 1.5 mg/ear; in test [5] (in vivo DNA standard), 1.75 mg/animal. The IC50 in test [6] (read-out: IC50 (Standard)) is 38 µM.
For the molecule `Nc1ccncc1Nc1ccc2cn[nH]c2c1` [N-(4-Amino-3-pyridinyl)-1H-indazol-6-amine], the AAEE in test [1] is reported as -35%. For the same molecule, the inhibition at 10000 µM in test [3] worked out at 57%.
For the molecule `CC(=O)N1CCc2cc(Nc3cnccc3N)ccc21` [1-Acetyl-N-(4-amino-3-pyridinyl)-2,3-dihydro-1H-indol-5-amine], the AAEE in test [1] is recorded as -36%.
With `O=[N+]([O-])c1cnccc1Nc1ccc2[nH]ccc2c1` [N-(3-Nitro-4-pyridinyl)-1H-indol-5-amine], the inhibition at 10000 µM in test [3] came out at 36%.
Consider `O=[N+]([O-])c1cc[n+]([O-])cc1Nc1ccc2c(c1)CCC2` [N-(Indan-5-yl)-4-nitro-3-pyridinamine-1-oxide], for which the AAEE in test [1] is on record as -44%. In addition, in test [2], the change in vivo at 10 µg/ear was -48%.
Turning to `O=[N+]([O-])c1cc[n+]([O-])cc1Nc1cccc2cc[nH]c12` [N-(4-Nitro-3-pyridinyl)-1H-indol-7-amine, N^7-oxide], the change in vivo at 10 µg/ear in test [2] is -40%.
With `O=[N+]([O-])c1cc[n+]([O-])cc1Nc1ccc2cn[nH]c2c1` [N-(4-Nitro-3-pyridinyl)-1H-indazol-6-amine, N^6-oxide], the inhibition at 10000 µM in test [3] is 83%.
For `Nc1cnccc1Nc1ccc2[nH]ccc2c1` [N-(3-Amino-4-pyridinyl)-1H-indol-5-amine], the AAEE in test [1] was -37%. Also, in test [3], the inhibition at 10000 µM stood at 82%.
With `Nc1cc[n+]([O-])cc1Nc1cccc2cc[nH]c12` [N-(4-Amino-3-pyridinyl)-1H-indol-7-amine, N^7-oxide], the change in vivo at 10 µg/ear in test [2] was -38%. Moreover, the “PIPE, difference in edema vs. control” value in test [4] is -45%.
On to `O=[N+]([O-])c1cc[n+]([O-])cc1Nc1ccc2[nH]ncc2c1` [N-(4-Nitro-3-pyridinyl)-1H-indazol-5-amine, N^5-oxide], for which the change in vivo at 10 µg/ear in test [2] is -78%.
Regarding `Cn1ccc2cc(Nc3cnccc3N)ccc21` [N-(4-Amino-3-pyridinyl)-1-methyl-1H-indol-5-amine], the inhibition at 10000 µM in test [3] stood at 62%. Further, the “PIPE, difference in edema vs. control” value in test [4] was -42%.
Take `Nc1ccncc1Nc1ccc2c(c1)CCC2` [N^3-(Indan-5-yl)-3,4-pyridinediamine]: the AAEE in test [1] is listed as -49%. The change in vivo at 10 µg/ear in test [2] is -75%.
